Results from patent US9926293B2, “Multivalent RAS binding compounds” (THE TRUSTEES OF COLUMBIA UNIVERSITY IN THE CITY OF NEW YORK, priority 2014, dated 2018).
Where two headings read alike, the source gives them in different places.

How the values were obtained:
BxPC-3 (WT) = assay: Cell viability assay (384-well, Alamar blue); assay type: cell-based; conditions: Homo sapiens, Table 7, 48 hours, 8-point dilution series
Experimental: (§1) All cell culture assays were incubated at 37° C., 5% CO2 in media containing Dulbecco's Modified Eagle Medium (DMEM) with 10% fetal bovine serum (FBS) and 1% penicillin-streptomycin (PS). 384-well format for EC50 determination: cells were trypsinized, counted, and seeded into 384-well plates at 1,000 cells/well. After 12-16 hours, compounds (as 50 mM stocks in DMSO) were arrayed in an 8- or 16-point dilution series in 384-well polypropylene plates. Compound solutions were transferred at a 1:5 dilution into the assay plates. After 48 hours, a 50% Alamar blue solution was added to a final concentration of 10% Alamar blue. After 6 hours of incubation, fluorescence intensity was determined using a Victor3 plate reader (Perkin Elmer) with a 535 nm excitation filter and a 590 nm emission filter. All compound measurements were performed in triplicate. For experiments performed in 6-well format, cells were trypsinized, counted, and seeded into 6-well plates at 200,000 cells per well 16 h prior to use. Media was then aspirated and replaced with 2 mL of media containing compounds at the indicated concentrations (from 10 mM stocks in DMSO). After 24 hours, cells were trypsinized and viability was determined using Trypan Blue exclusion assay.

Calu-1 (KRAS G12C) = assay: Cell viability assay (384-well, Alamar blue); assay type: cell-based; conditions: Homo sapiens, Calu-1, 48 h
Experimental: as §1

HT1080 (NRAS Q61K) = assay: Cell viability assay (384-well, Alamar blue); assay type: cell-based; conditions: Homo sapiens, HT-1080, 48 h
Experimental: as §1

MDA-MB-231 (KRAS G13D) = assay: Cell viability assay (384-well, Alamar blue); assay type: cell-based; conditions: Homo sapiens, MDA-MB-231, 48 h
Experimental: as §1

HPAFII (KRAS G12D) = assay: Cell viability assay (384-well, Alamar blue); assay type: cell-based; conditions: Homo sapiens, HPAF-II, 48 h
Experimental: as §1

SW480 (KRAS G12V) = assay: Cell viability assay (384-well, Alamar blue); assay type: cell-based; conditions: Homo sapiens, SW480, 48 h
Experimental: as §1

Panc-1 (KRAS G12D) = assay: Cell viability assay (384-well, Alamar blue); assay type: cell-based; conditions: Homo sapiens, PANC-1, 48 h
Experimental: as §1

U2OS (WT) = assay: Cell viability assay (384-well, Alamar blue); assay type: cell-based; conditions: Homo sapiens, Table 7, 48 hours, 8-point dilution series
Experimental: as §1

MIA Paca-2 (KRAS G12C) = assay: Cell viability assay (384-well, Alamar blue); assay type: cell-based; conditions: Homo sapiens, MIA PaCa-2, 48 h
Experimental: as §1

BJeLR (HRAS G12V) = assay: Cell viability assay (384-well, Alamar blue); assay type: cell-based; conditions: 48 h
Experimental: as §1

GppNHp-loaded KRASG12D = molecular target: T1, GppNHp-loaded KRASG12D (Homo sapiens, UniProt P01116, G12D); assay: Microscale thermophoresis, lysine NT-647-labeled GppNHp-loaded KRAS^G12D; assay type: binding; conditions: read-out: dissociation constant KD
T1 construct: made in house; host or cells: Escherichia coli BL21-Gold (DE3)
Experimental: Microscale Thermophoresis
KRAS^G12D (250 μM) in 25 mM HEPES, 100 mM sodium chloride, 2 mM TCEP with 20 mM EDTA and 1 mM GppNHp was shaken at 220 rpm at 30° C. to remove the endogenous nucleotide, The solution was placed on ice for 2 minutes prior to the addition of 65 mM MgCl2. After an additional 10 minutes incubation on ice, 200 uL of a 10 uM solution of KRAS^G12D was combined with 200 uL of a 20 uM solution of NT-647-NHS-ester dye (from a 652.4 μM stock). The protein/dye mixture was rotated at 4° C. for 30 minutes, before being separated from the excess dye and buffer exchanged into 25 mM Tris, 100 mM sodium chloride, 2 mM TCEP, and 5 mM MgCl2 via a nap-5 column. The test compounds were arrayed across a 16-point dilution series consisting of 1.5% DMSO with 25 mM Tris, 100 mM NaCl, 2 mM TCEP, 5 mM MgCl2 and 0.05% tween-20. Thermophoretic movement of the fluorescently labeled protein with the inhibitors was performed using a Monolith NT.115 (Nanotemper Technologies). RALA and RHOA were purchased commercially from Abcam (RALA CN:ab102555, RHOA CN:ab101594).
In another set of experiments, the top D38-A59 two-site multivalent compounds were evaluated by a RAS pulldown using the RAS binding domain of CRAF (the top two hits are shown in FIG. 14D). This abrogation of binding between RAS and its effector protein was also evident in the RAS-RALGDS interaction (FIG. 14E). To quantify the binding of the two-site compounds to RAS, MST was performed again using lysine NT-647-labeled, GppNHp-loaded KRAS^G12D. […] The third (Y32) site was extended into (compound 34MEW95) using this scaffold.
Docking scores and dissociation constants for binding to GppNHp-bound KRAS^G12D (PDB:4DSN) were measured as set forth above for additional 2- and 3-site compounds by microscale thermophoresis.

[1] = Aqueous solubility as noted during MST; assay type: physicochemical; conditions: noted in MST buffer
[2] = system: MDA-MB-231 cell line (KRAS^G13D); assay: Multicellular tumor spheroids in low adherence plates; assay type: cell-based; conditions: 72 hours; for size of multicellular tumor spheroids: low-adherence plates
Experimental: Multicellular Tumor Spheroids
Multicellular tumor spheroids (MCTSs) were grown in 96-well Corningware Ultra Low Attachment (ULA) Plates (CLS 3474). 100 μL of cell suspension containing 2×10^4 cells/ml were added to each well of the ULA plate containing 100 μL of a 2× solution of the desired concentration of compounds. Cells were incubated at 37° C., 5% CO2 for 72 hours to allow for MCTS formation. After 72 hours, 50 μL of a 50% solution of Alamar blue and medium was added and incubated for 12 hours prior to measurements on a Victor3 plate reader as previously described.

[3] = Table 7, 8-point dilution series
[4] = Table 8, MDA-MB-231 (KRAS^G13O), 384-well, alamar blue

T1 sequence (P01116 1-169 isoform P01116-2 G12D): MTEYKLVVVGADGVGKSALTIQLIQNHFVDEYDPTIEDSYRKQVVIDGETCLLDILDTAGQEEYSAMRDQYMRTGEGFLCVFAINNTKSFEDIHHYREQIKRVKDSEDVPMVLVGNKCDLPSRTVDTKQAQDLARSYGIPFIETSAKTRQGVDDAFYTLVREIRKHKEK

Row | SMILES | EC50 (BxPC-3 (WT)) [µM] | EC50 (Calu-1 (KRAS G12C); [3]) [µM] | EC50 (Calu-1 (KRAS G12C); Table 8, 384-well, alamar blue) [µM] | EC50 (HT1080 (NRAS Q61K); [3]) [µM] | EC50 (HT1080 (NRAS Q61K); Table 8, 384-well, alamar blue) [µM] | EC50 (MDA-MB-231 (KRAS G13D); [3]) [µM] | EC50 (MDA-MB-231 (KRAS G13D); [4]) [µM] | EC50 (HPAFII (KRAS G12D); [3]) [µM] | EC50 (HPAFII (KRAS G12D); Table 8, 384-well, alamar blue) [µM] | EC50 (SW480 (KRAS G12V); [3]) [µM] | EC50 (SW480 (KRAS G12V); Table 8, 384-well, alamar blue) [µM] | EC50 (Panc-1 (KRAS G12D); [3]) [µM] | EC50 (Panc-1 (KRAS G12D); Table 8, 384-well, alamar blue) [µM] | EC50 (U2OS (WT)) [µM] | EC50 (MIA Paca-2 (KRAS G12C); [3]) [µM] | EC50 (MIA Paca-2 (KRAS G12C); Table 8, 384-well, alamar blue) [µM] | EC50 (BJeLR (HRAS G12V); [3]) [µM] | EC50 (BJeLR (HRAS G12V); Table 8, 384-well, alamar blue) [µM] | aqueous solubility [1] | size of multicellular tumor spheroids [2] | further results
1 | NC1(C(=O)NCCCn2cc(-c3ccc(OC(F)(F)F)cc3)c3cc(CN4CCN(Cc5c(Cl)cccc5Cl)CC4)ccc32)CCNCC1 [Compound 31MEW44, 4-amino-N-(3-(5-((4-(2,6-dichlorobenzyl)piperazin-1-yl)methyl)-3-(4-(trifluoromethoxy)phenyl)-1H-indol-1-yl)propyl)piperidine-4-carboxamide] | 5.29 | 3.6 | 3.6 | 2.47 | 1.1 | 2.26 | 2.3 | 6.02 | 5.2 | 2.18 | 2.2 | 2.06 | 5.1 | 5.03 | 2.81 | 3.2 | 3.95 | 4 | more soluble | decreased in size in a dose-dependent manner | Kd (GppNHp-loaded KRASG12D; MST, GppNHp-loaded KRAS^G12D, 34MEW43 and 34MEW95 estimated, no full dose-response curve): 9 µM; effect on three dimensional multicellular spheroids ([2]; 20 μM): killed
2 | NC1(C(=O)NCCCn2cc(-c3cccc(F)c3)c3c(CN4CCN(CCOc5ccc(Cl)cc5)CC4)cccc32)CCNCC1 [Compound 34MEW43, 4-amino-N-(3-(4-((4-(2-(4-chlorophenoxy)ethyl)piperazin-1-yl)methyl)-3-(3-fluorophenyl)-1H-indol-1-yl)propyl)piperidine-4-carboxamide] | 13.1 | 9.42 | 9.4 | 5.17 | 5.2 | 5.63 | 5.6 | 16.4 | 16 | 7.06 | 7.1 | 5.96 | 6 | 12.3 | 8.45 | 8.5 | 9.71 | 9.7 | low aqueous solubility | decreased in size in a dose-dependent manner | Kd (GppNHp-loaded KRASG12D): 73 µM
